{"source": "paper PMC12067741", "about": "“Inhibition of SOD1 trimerization is a novel drug target for ALS disease” (Translational Neurodegeneration, 2025)", "key": {"SOD1^G93A−Tg mice": {"tested_on": "SOD1^G93A−Tg mice", "assay": "Efficacy of oral (p.o., ASD) administration in SOD1G93A-Tg ALS mice", "procedure": "For mice with p.o. injection, the mice were trained for 2 weeks from the age of 7 weeks, and the rotarod test was performed from 9 weeks. Age-matched WT mice were tested as positive control. […] Mouse movement was recorded. The recorded video file was further analyzed using the EthoVision XT 15 software (Noldus, Wageningen, Netherlands)."}, "human normal fibroblast": {"tested_on": "human normal fibroblast", "assay": "Cell viability (MTT)", "assay_type": "cell-based", "settings": "48 hr", "method": "(§1) Cells were incubated with 0.5 mg/mL of MTT solution (475989; Merck, Darmstadt, Germany) for 4 h at 37 °C. After removing excess solution and washing with PBS, the precipitated materials were dissolved in 200 μL DMSO and quantified by measuring absorbance at 540 nm.\n(§2) Fig. S1. Optimized inhibitor reduces SOD1 aggregation. a, Mutant SOD1s induced WT-SOD1 aggregation. Testing the selected chemicals to check the inhibitory effect on SOD1 aggregation .HEK293 cells were transfected with MT-SOD1 vectors (A4V, G 93 A) and treated with selected chemicals ([…]). After incubation, transfected cells were harvested with TNNI buffer and fixed with 0.04% glutaraldehyde (Glu) for 30min. Samples were separated using SDS-PAGE. b-c, PRG-A-04 inhibited SOD1 inclusions in SK-N-SH cells. […] After incubation, cells were fixed with 4 % PFA and observed under the fluorescence microscope. (c) Cells with SOD1 inclusions (white arrows; strong intensity of SOD1) were counted by photomicrographs and the percentages were shown with standard deviation (SD). For cell counting, ten fluorescence images were randomly selected. […]\n(§3) show cytotoxicity. To know the toxic effect of PRG-A-04 , human normal fibroblast (f) and neuron cells (g) were incubated with PRG -A-04 for 48 hr dose dependently and measured the viability through MTT assay .“Con” means Dimethyl sulfoxide (DMSO) -treated control . […]"}, "SK-N-SH cells": {"tested_on": "SK-N-SH cells", "assay": "Cell viability (MTT)", "assay_type": "cell-based", "settings": "neuron cell line, 48 hr", "method": "as §1, §2, §3"}, "CYP 3A": {"tested_on": "CYP 3A", "assay": "CYP inhibition (direct)", "from_the_text": "Fig. S8. Preclinical data of PRG-A-04 a Plasma protein binding b CYP inhibition(direct) […]\nd Mouse Brain Tissue penetration\nFor the convenience of calculation, […]"}, "TDP-43 and WT-SOD1": {"tested_on": "TDP-43 and WT-SOD1", "assay": "WT-SOD1 and TDP-43 aggregation induced by ectopic TDP-43 expression in SK-N-SH cells", "assay_type": "cell-based", "settings": "TDP-43 overexpression", "from_the_text": "Cells with SOD1 inclusions (white arrows; strong intensity of SOD1) were counted and the percentages are shown with standard deviation. n = 3 independent experiments; two-tailed Student’s t-test. Scale bar, 10 μm. d, e PRG-A-04 reduced misfolding of MT-SOD1. d The affinity of misfolding-specific antibody to MT-SOD1 was inhibited by PRG-A-04. e Quantification of band intensity with Image J software. Mean ± SD. A.U., arbitrary units. *P < 0.05, **P < 0.01. f PRG-A-04 reduced the MT-SOD1 recombinant protein-induced increase of self-oligomerization in vitro. g WT-SOD1 and TDP-43 oligomerization induced by ectopic TDP-43 expression was abolished by PRG-A-04 treatment. h–k WT-SOD1 aggregation induced by ectopic TDP-43 expression was reduced by PRG-A-04 treatment. […] Scale bars, 10 μm. i PRG-A-04 reduced WT-SOD1 inclusions triggered by TDP-43 overexpression. Inclusion-positive cells (white arrows in h, strong intensity of SOD1) were counted and the percentages are shown as mean ± SD. j PRG-A-04 reduced the ratio of cells with cytoplasmic TDP-43 inclusions to tdtomato-positive ones. Cells with cytoplasmic TDP-43 (white arrows) among tdtomato positive ones were counted in randomly selected fields by photomicrographs and the cytosol/nucleus ratio was shown with ± SD. k PRG-A-04 reduced cytoplasmic TDP-43 inclusion. Mean ± SD. *P < 0.05, **P < 0.01, ***P < 0.005 […]"}, "Plasma stability": {"assay": "Plasma stability", "assay_type": "in vitro ADME", "settings": "cynomolgus monkey plasma, after 120 min of incubation"}, "[1]": {"assay": "Metabolic stability in liver microsomes", "assay_type": "in vitro ADME", "settings": "cynomolgus monkey liver microsomes"}, "MT-SOD1": {"tested_on": "MT-SOD1", "assay": "SOD1 oligomerization assay in cells transfected with MT-SOD1 (glutaraldehyde fixation, SDS-PAGE)", "assay_type": "cell-based", "method": "For SDS-PAGE, proteins were extracted from cells with the RIPA buffer (50 mmol/L Tris–Cl, pH 7.5, 150 mmol/L NaCl, 1% NP-40, 0.1% SDS and […]). To detect the oligomer status, the cells were harvested with the TNNI buffer (50 mmol/L Tris–Cl, pH 7.5, 150 mmol/L NaCl, 0.3% NP-40, 100 mmol/L iodoacetamide, protease inhibitor cocktails) and reacted with 0.04% glutaraldehyde (Glu) for 30 min, and then SDS-PAGE was performed using the pan-SOD1 antibody. Samples were separated via SDS-PAGE and transferred to PVDF membrane. Blotted membranes were blocked by 3% skim milk containing TBST buffer for 1 h and incubated with specific antibodies. The following primary antibodies were used: pan-SOD1 (GTX100554) from Genetex (Irvine, CA); misfolded SOD1-specific antibody (B8H10) from MediMabs (Montreal, Canada); Actin (sc-1616), GST (sc-138), and GFP (Green fluorescent protein; sc-8036) antibodies from Santa Cruz Biotechnology (Santa Cruz, CA); TDP-43 antibody (10782–2-AP) from Proteintech (Rosemont, IL); anti-FLAG (Sigma; F3165) from Sigma-Aldrich (St. Louis, MO). HRP-conjugated goat anti-mouse, goat anti-rabbit and mouse anti-goat antibodies (Pierce, Thermo Fisher Scientific, Inc., Rockford, IL) were used as secondary antibodies. The blots were detected using an ECL assay (Advansta) and images were acquired using the […] ImageQuant 800 (Cytiva) system and an X-Ray film detector. […]"}}, "note": "“Also recorded” adds a separate entry of the source. Where two headings read alike, the source gives them in different places.", "data": [{"smiles": "COc1cc(C=CCOC2Cc3cc4ccc(=O)oc4cc3OC2(C)C)ccc1[N+](=O)[O-]", "note": "(stereo not shown) [PRG-A-04]", "values": [{"measurement": "extension of lifespan of ALS mice", "setting": "SOD1^G93A−Tg mice; oral administration", "value": "up to 3 weeks"}, {"measurement": "toxicity on oral administration", "setting": "SOD1^G93A−Tg mice; p.o. twice a week from 9 weeks", "value": "without toxicity"}, {"measurement": "reduction of movement (rotarod latency) at 17 weeks", "setting": "SOD1^G93A−Tg mice; p.o. twice a week from 9 weeks, dose not stated, vehicle about 73%", "value": 45, "unit": "%"}, {"measurement": "cytotoxicity", "setting": "human normal fibroblast", "value": "without severe cytotoxicity"}, {"measurement": "cytotoxicity", "setting": "SK-N-SH cells", "value": "without severe cytotoxicity"}, {"measurement": "IC50", "setting": "CYP 3A", "value": "> 10", "unit": "µM"}, {"measurement": "IC50", "setting": "CYP 3A; read-out: IC50, DI, CYP 3A(midazolam), direct inhibition", "value": "> 10", "unit": "µM"}, {"measurement": "cytosolic mislocalization of TDP-43", "setting": "TDP-43 and WT-SOD1", "value": "significantly reduced"}, {"measurement": "effect on TDP-43 and SOD1 aggregation", "setting": "TDP-43 and WT-SOD1", "value": "inhibitory effect on TDP-43 and SOD1 aggregation"}, {"measurement": "stability in plasma", "setting": "Plasma stability", "value": "stable"}, {"measurement": "extent of metabolism in liver microsomes", "setting": "[1]", "value": "moderately metabolized; also recorded: metabolized significantly"}, {"measurement": "effect on SOD1 dimer formation", "setting": "MT-SOD1; cells transfected with MT-SOD1", "value": "did not affect dimer formation"}, {"measurement": "effect on MT-SOD1 aggregation / oligomerization", "setting": "MT-SOD1; cells transfected with MT-SOD1 vectors", "value": "suppressed the MT-SOD1 aggregation; also recorded: blocked aggregation of various SOD1 mutants; also recorded: suppressed SOD1 oligomerization by MT-SOD1 in a dose-dependent manner"}]}]}
